Source: ChEMBL document CHEMBL1138112, “Indoloprodigiosins from the C-10 bipyrrolic precursor: new antiproliferative prodigiosin analogs” (Bioorg Med Chem Lett, 2006)

Tests used:
Assay type in all cases: functional, cell-based
Settings in all cases: Homo sapiens
[1] = tested on: NCI-H460; assay: Antiproliferative activity against NCI-H460 cell line by MTS assay
[2] = tested on: HT-29; assay: Antiproliferative activity against HT29 cell line by MTS assay
[3] = tested on: A549; assay: Antiproliferative activity against A549 cell line by MTS assay
[4] = tested on: MDA-MB-231; assay: Antiproliferative activity against MDA-MB-231 cell line by MTS assay
[5] = tested on: DLD-1; assay: Antiproliferative activity against DLD1 cell line by MTS assay

| SMILES | IC50 [1] [µM] | IC50 [2] [µM] | IC50 [3] [µM] | IC50 [4] [µM] | IC50 [5] [µM] |
| --- | --- | --- | --- | --- | --- |
| COc1cc(-c2ccc[nH]2)[nH]c1/C=C1\C(C)=Nc2ccccc21 | 21.6 | 36.2 | 54.6 | 47.4 | 63.2 |
| COc1cc(-c2ccc[nH]2)[nH]c1/C=C1\C(C)=Nc2ccc(C)cc21 | 10.8 | 12.3 | 14.3 | 23.2 | 16.7 |
| COc1cc(-c2ccc[nH]2)[nH]c1/C=C1/C=C2CCCCC2=N1 | 0.23 | 0.781 | 0.487 | 1.38 | 0.446 |
| COC1=CC(c2ccc[nH]2)=N/C1=C\c1[nH]c(-c2ccc[nH]2)cc1OC | 3.45 | 13.5 | 6.45 | 12.8 | 7.74 |
| COc1cc(-c2ccc[nH]2)[nH]c1/C=C1\C=Nc2ccccc21 | 4.06 | 4.68 | 6.61 | 9.35 | 6.02 |
| CCC1CCCCCCCCC2=N/C(=C\c3[nH]c(-c4ccc[nH]4)cc3OC)C1=C2 (stereo not given) [METACYCLOPRODIGININE] | 0.33 | 1.7 | 1.25 | 5.21 | 1.78 |
| CCCCCC1=C/C(=C/c2[nH]c(-c3ccc[nH]3)cc2OC)N=C1C [PRODIGIOSIN] | 0.032 | 0.173 | 0.077 | 0.213 | 0.079 |
